# Data from US12370143B2, “Compound or salt thereof and lipid particles” (FUJIFILM Corporation, priority 2018, dated 2025).
# What was measured:
# [1] = Encapsulation rate of siRNA in nucleic acid lipid particles (Luc2-siRNA); type: physicochemical; conditions: compound/DSPC/cholesterol/DMG-PEG2000 50/10/38.5/1.5
# In short: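 Encapsulation rate was calculated as (total − outer-phase siRNA)/total ×100. Total siRNA was quantified spectrophotometrically after lipid-dissolving ethanol precipitation, and unencapsulated siRNA by RiboGreen in TE (ex 485/em 535 nm). The particles were test lipid/DSPC/cholesterol/DMG-PEG2000 at 50/10/38.5/1.5, formed by microfluidic mixing with Luc2-siRNA at pH 4 and dialyzed against PBS.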
# [2] = test system: DMS273 cells constantly expressing Luc; test: Target reporter protein (Luc) knockdown in cell, reporter protein assay; type: cell-based; conditions: Homo sapiens, DMS-273; Luc2-siRNA lipid particles using the compound; siRNA 0.1 to 100 nmol/L; concentration at which Luc expression is knocked down to 50%; read-out: IC50
# In short: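 Nucleic acid lipid particles added at final 0.1 to 100 nmol/L to DMS273 human SCLC cells stably expressing Luc2, 24 hr exposure then 24 hr further culture after medium change. Luc quantified by Steady Glo luminescence after viable cell count; knockdown efficiency calculated and IC50 taken as concentration giving 50% Luc reduction.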
# [3] = Particle size of nucleic acid lipid particles (Luc2-siRNA); type: physicochemical; conditions: compound/DSPC/cholesterol/DMG-PEG2000 50/10/38.5/1.5
# In short: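 Lipid particles formed from oil phase (test lipid/DSPC/cholesterol/DMG-PEG2000, 50/10/38.5/1.5 molar, 20 mmol/L total in ethanol) micromixed 1:3 with Luc2-siRNA in pH 4 acetate buffer (19.7 μmol/L); siRNA/lipid 339 mol/mol, PBS-diluted and dialyzed. Size measured on ELS-Z2 dynamic light scattering.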
# [4] = test system: Factor VII (FVII) protein; test: Measurement of Factor VII (FVII) protein in mouse plasma after FVII-siRNA lipid particles; type: in vivo, C57BL6/J mice; conditions: 0.1 mg/kg caudal vein, plasma 24 hours after administration, PBS group = 100%
# Protocol: (§1) The Factor VII (FVII) protein was measured according to the method described in Nature Biotechnology (2010) 28, 172-176. C57BL6/J mice were randomly grouped (n=3). A dispersion liquid of nucleic acid lipid particles was prepared by the same method as that in <Preparation of nucleic acid lipid particles>, except that FVII-siRNA having the sequence described in Molecular Therapy (2009) 17, p. 878 was used instead of Luc-siRNA. The dispersion liquid was administered to the caudal vein of the mice at a dosage of 0.1 mg/kg. For comparison, PBS at the same volume was administered to the caudal vein of the mice. Twenty four hours after the administration, blood was collected from the caudal vena cava, thereby obtaining plasma. The amount of FVII protein was quantified using the obtained plasma and a Biophen FVII assay kit (Aniara).
# The FVII amount in the plasma sample of each individual in the PBS administration group was regarded as 100%, and the ratio of the FVII amount in the plasma sample of each individual to 100% was adopted as a measurement value.
# [5] = Particle size of nucleic acid lipid particles (FVII-siRNA); type: physicochemical
# Protocol: The compounds described in Table 2, L-α-distearoylphosphatidylcholine (trade name: COATSOME® MC-8080; NOF corporation), cholesterol (trade name: Choesterol HP; NIPPON FINE CHEMICAL CO., LTD.), and 1,2-dimyristoyl-rac-glycero-3-(methylpolyoxyethylene 2000) (hereinafter, called DMG-PEG2000) (trade name: SUNBRIGHT® GM-020; NOF corporation) were dissolved in ethanol at a molar ratio of 50/10/38.5/1.5 such that the total lipid concentration became 20 mmol/L, thereby obtaining an oil phase.
# An aqueous nucleic acid solution obtained by dissolving 5 mg of Luc2-siRNA having the sequence described in Biomacromolecules (2013) 14, p. 3905 in 1 mL of sterile water was diluted with 10 mmol/L acetate buffer having a pH 4 such that the nucleic acid concentration became 19.7 μmol/L, thereby obtaining a water phase. Then, the water phase and the oil phase were mixed together by a micromixer (see JP5288254B) using a syringe pump such that the volume ratio of water phase:oil phase became 3:1 (final ratio of siRNA/lipid=339 (mol/mol)), and the mixed solution was diluted 2× with PBS, thereby obtaining a dispersion liquid of nucleic acid lipid particles. The dispersion liquid was dialyzed (Slide-A-Lyzer G2, MWCO: 10 kD, Thermo Fisher Scientific) using a phosphate buffered saline such that ethanol was removed, thereby obtaining nucleic acid lipid particles.
# The particle size of the nucleic acid lipid particles was measured by the same method as that in <Preparation of lipid particles>.
# as §1
# [6] = Nucleic acid encapsulation rate of nucleic acid lipid particles (FVII-siRNA); type: physicochemical
# Protocol: A 3 mol/L aqueous sodium acetate solution (30 μL) and 9 μL of glycogen were added to 60 μL of the lipid particles retaining nucleic acids, and then 1.5 mL of ethanol was added thereto such that only the nucleic acids were precipitated while the lipid was dissolved. Then, the supernatant was removed by centrifugation. After the precipitates were air-dried for 15 minutes or longer, water was added thereto such that the precipitates were redissolved, and the concentration thereof was measured using Nanodrop NF1000 (Thermo Fisher Scientific), thereby quantifying the total nucleic acid concentration.
# The nucleic acid concentration was quantified using a Quant-iT RiboGreen RNA Assay Kit (Thermo Fisher Scientific) according to the protocol. First, a 20×TE buffer included in the above kit was diluted with water, thereby obtaining a 1×TE buffer. TE represents Tris/EDTA (ethylenediaminetetraacetic acid). In order to quantify only the nucleic acid in the outer water phase, the dispersion liquid of lipid particles retaining nucleic acids was diluted 10,000× with the 1×TE buffer.
# The 10,000× diluted dispersion liquid of lipid particles (100 μL) was put in a 96-well plate, then 100 μL of a RiboGreen reagent (reagent included in the Quanti-iT Ribogreen RNA Assay Kit described above) diluted 2000× with the 1×TE buffer was added to a sample, and fluorescence (excitation wavelength: 485 nm, fluorescence wavelength: 535 nm) was measured using a plate reader Infinit EF200 (TECAN), thereby quantifying the nucleic acid concentration in the outer water phase.
# By using the total nucleic acid concentration obtained through the above steps and the quantified nucleic acid concentration in the outer water phase, the nucleic acid encapsulation rate of the nucleic acid lipid particles was calculated according to the following Equation. Nucleic acid encapsulation rate (%)=(total nucleic acid concentration−nucleic acid concentration in outer water phase)/total nucleic acid concentration×100 The results are shown in Table 2.
# as §1
Nucleic acid encapsulation rate [1],IC50 [2],Particle size (nm) [3],Particle size (nm) [5],Nucleic acid encapsulation rate [6],SMILES,Relative amount of FVII protein (%) [4]
85%,39 nM,69.2 nm,75.4 nm,57%,"CCCCC/C=C\C/C=C\CCCCCCCCC(CCCCCCCC/C=C\C/C=C\CCCCC)OC(=O)OCCN(C)CCN(CC)CC [Example 23, 2-((2-(Diethylamino)ethyl)(methyl)amino)ethyl((6Z,9Z,28Z,31Z)-heptatriaconta-6,9,28,31-tetraen-19-yl)carbonate]",39%
88%,41 nM,62.0 nm,66.2 nm,67%,"CCCCC/C=C\C/C=C\CCCCCCCCC(CCCCCCCC/C=C\C/C=C\CCCCC)OC(=O)OCCN(CC)CCN(C)C [Example 24, 2-((2-(Dimethylamino)ethyl)(ethyl)amino)ethyl((6Z,9Z,28Z,31Z)-heptatriaconta-6,9,28,31-tetraen-19-yl)carbonate]",24%
78%,24 nM,69.8 nm,73.6 nm,88%,"CCCCC/C=C\C/C=C\CCCCCCCCC(CCCCCCCC/C=C\C/C=C\CCCCC)OC(=O)OCCN(CC)CCN(CC)CC [Example 30, 2-((2-(Diethylamino)ethyl)(ethyl)amino)ethyl((6Z,9Z,28Z,31Z)-heptatriaconta-6,9,28,31-tetraen-19-yl)carbonate]",5%
78%,38 nM,67.9 nm,73.5 nm,80%,"CCCCC/C=C\C/C=C\CCCCCCCCC(CCCCCCCC/C=C\C/C=C\CCCCC)OC(=O)OCCN(CCC)CCN(C)C [Example 31, 2-((2-(Dimethylamino)ethyl)(propyl)amino)ethyl((6Z,9Z,28Z,31Z)-heptatriaconta-6,9,28,31-tetraen-19-yl)carbonate]",14%
75%,15 nM,73.7 nm,66.6 nm,75%,"CCCCC/C=C\C/C=C\CCCCCCCCC(CCCCCCCC/C=C\C/C=C\CCCCC)OC(=O)OCCN(CCCCC)CCN(C)C [Example 40, 2-((2-(Dimethylamino)ethyl)(pentyl)amino)ethyl((6Z,9Z,28Z,31Z)-heptatriaconta-6,9,28,31-tetraen-19-yl)carbonate]",3%
78%,19 nM,74.5 nm,75.3 nm,87%,CCCCCCCC/C=C\CCCCCCCC(=O)OCCCCCCC(CCCCCCOC(=O)CCCCCCC/C=C\CCCCCCCC)OC(=O)OCCN(CCCCCC)CCN(C)C [Example 43],11%
76%,22 nM,71.7 nm,71.5 nm,79%,"CCCCC/C=C\C/C=C\CCCCCCCC(=O)OCCCCCCC(CCCCCCOC(=O)CCCCCCC/C=C\C/C=C\CCCCC)OC(=O)OCCN(CC)CCN(CC)CC [Example 45, 7-(((2-((2-(Diethylamino)ethyl)(ethyl)amino)ethoxy)carbonyl)oxy)tridecane-1,13-diyl(9Z,9′Z,12Z,12′Z)-bis(octadeca-9,12-dienoate)]",16%
80%,17 nM,71 nm,68.4 nm,84%,"CCCCCC/C=C\CCCCCCCC(=O)OCCCCCCC(CCCCCCOC(=O)CCCCCCC/C=C\CCCCCC)OC(=O)OCCN(CC)CCN(CC)CC [Example 46, 7-(((2-((2-(Diethylamino)ethyl)(ethyl)amino)ethoxy)carbonyl)oxy)tridecane-1,13-diyl(9Z,9′Z)-bis(hexadec-9-enoate)]",18%
76%,,73.8 nm,77.8 nm,80%,"CCCCCCCC(=O)OCCN(CCOC(=O)OC(CCCCCC)CCCCCCCCC(=O)OCCC(CCCCC)CCCCC)CCN(CC)CC (centres unmarked) [Example 125, 3-Pentyloctyl 3-ethyl-12-hexyl-6-(2-(octanoyloxy)ethyl)-10-oxo-9,11-dioxa-3,6-diazahenicosan-21-oate]",5%
75%,,66.8 nm,74.2 nm,85%,"CCCCCCCCC(=O)OCCN(CCOC(=O)OC(CCCCCC)CCCCCCCCC(=O)OCCC(CCCCC)CCCCC)CCN(CC)CC (centres unmarked) [Example 126, 3-Pentyloctyl 3-ethyl-12-hexyl-6-(2-(nonanoyloxy)ethyl)-10-oxo-9,11-dioxa-3,6-diazahenicosan-21-oate]",9%
66%,,64.9 nm,74.1 nm,68%,"CCCCCCCCC(=O)OCCN(CCOC(=O)OC(CCCCCC)CCCCCCCCC(=O)OCC(CCCCC)CCCCC)CCN(CC)CC (centres unmarked) [Example 130, 2-Pentylheptyl 3-ethyl-12-hexyl-6-(2-(nonanoyloxy)ethyl)-10-oxo-9,11-dioxa-3,6-diazahenicosan-21-oate]",9%

SMILES,Nucleic acid encapsulation rate [1],IC50 [2],Particle size (nm) [3],Particle size (nm) [5],Nucleic acid encapsulation rate [6],Relative amount of FVII protein (%) [4]
"CCCCCCCC(CCCCCCC)COC(=O)CCCCCCCCC(CCCCCC)OC(=O)OCCN(CCN(CC)CC)C(C)C (centres unmarked) [Example 133, 2-Heptylnonyl 3-ethyl-12-hexyl-6-isopropyl-10-oxo-9,11-dioxa-3,6-diazahenicosan-21-oate]",78%,,75.8 nm,75.8 nm,78%,16%
